Activity calls are given as the source filed them. The rule behind the calls is not given here.
How the values were obtained:
[1] = Cytotoxicity against mouse Neuro2a cells assessed as inhibition of cell growth incubated for 24 hrs by MTT assay; format: toxicity, cell-based, N2a
N2a [2] = experiment: Induction of neurite outgrowth in mouse Neuro2a cells assessed as increase in GAP43 protein expression at 25 uM incubated for 24 hrs by immunoblotting analysis; format: functional, cell-based
N2a [3] = experiment: Induction of neurite outgrowth in mouse Neuro2a cells assessed as increase in neurite-number per cells at 25 uM incubated for 24 hrs; format: functional, cell-based
N2a [4] = experiment: Induction of neurite outgrowth in mouse Neuro2a cells assessed as increase in percentage of neurite-bearing cells at 25 uM incubated for 24 hrs; format: functional, cell-based
N2a [5] = experiment: Induction of neurite outgrowth in mouse Neuro2a cells assessed as increase in neurite-length per cells at 25 uM incubated for 24 hrs; format: functional, cell-based

Which IC50 at 24 h [1] does the source give for `CCCC/C=C\CCCCCCCC(=O)N[C@@H](CO[C@@H]1O[C@H](CO)[C@@H](O[C@@H]2O[C@H](CO)[C@H](O[C@@H]3O[C@H](CO)[C@H](O)[C@H](O[C@@H]4O[C@H](CO)[C@H](O)[C@H](O)[C@H]4O)[C@H]3NC(C)=O)[C@H](O[C@]3(C(=O)O)C[C@H](O)[C@@H](NC(C)=O)[C@@H]([C@@H](O)[C@H](O)CO)O3)[C@H]2O)[C@H](O)[C@H]1O)[C@H](O)/C=C/CCCCCCCCCCCCC` here?
Its IC50 at 24 h is under 25 µM.

Which Activity (N2a [2]) does the source give for `CCCCCCCC/C=C/CCCCCCCC(=O)N[C@@H](CO[C@@H]1O[C@H](CO)[C@@H](O[C@@H]2O[C@H](CO)[C@H](O[C@@H]3O[C@H](CO)[C@H](O)[C@H](O[C@@H]4O[C@H](CO)[C@H](O)[C@H](O)[C@H]4O)[C@H]3NC(C)=O)[C@H](O[C@]3(C(=O)O)C[C@H](O)[C@@H](NC(C)=O)[C@@H]([C@@H](O)[C@H](O)CO)O3)[C@H]2O)[C@H](O)[C@H]1O)[C@H](O)/C=C/CCCCCCCCCCCCCCC` here?
Its Activity is “Active”.

What about the IC50 at 24 h [1] of the same compound?
Its IC50 at 24 h is over 200 µM.

For `CCCCCCCC/C=C\CCCCCCCC(=O)N[C@@H](CO[C@@H]1O[C@H](CO)[C@@H](O[C@@H]2O[C@H](CO)[C@H](O[C@@H]3O[C@H](CO)[C@H](O)[C@H](O[C@@H]4O[C@H](CO)[C@H](O)[C@H](O)[C@H]4O)[C@H]3NC(C)=O)[C@H](O[C@]3(C(=O)O)C[C@H](O)[C@@H](NC(C)=O)[C@@H]([C@@H](O)[C@H](O)CO)O3)[C@H]2O)[C@H](O)[C@H]1O)[C@H](O)/C=C/CCCCCCCCCCCCC`, which Activity (N2a [3]) is on record?
The Activity was “Active”.

And the Activity (N2a [2])?
The Activity was “Active”.

What about the Activity (N2a [4]) of the same compound?
The Activity was “Active”.

What about the IC50 at 24 h [1] of the same compound?
Its IC50 at 24 h is over 200 µM.

What about the Activity (N2a [5]) of the same compound?
Its Activity is “Active”.

With `CCCCCCCCCCCCCCC/C=C/[C@@H](O)[C@H](CO[C@@H]1O[C@H](CO)[C@@H](O[C@@H]2O[C@H](CO)[C@H](O[C@@H]3O[C@H](CO)[C@H](O)[C@H](O[C@@H]4O[C@H](CO)[C@H](O)[C@H](O)[C@H]4O)[C@H]3NC(C)=O)[C@H](O[C@]3(C(=O)O)C[C@H](O)[C@@H](NC(C)=O)[C@@H]([C@@H](O)[C@H](O)CO)O3)[C@H]2O)[C@H](O)[C@H]1O)NC(=O)CCCCCCCCCCCCCCCCC` as the compound, how does the IC50 at 24 h [1] read?
Its IC50 at 24 h is over 200 µM.

From ChEMBL document CHEMBL5108016, “Design, synthesis and neurite outgrowth activity of novel ganglioside GM1 derivatives by remodeling of the fatty acid moiety” (Eur J Med Chem, 2022)
